# Experiments:
# WDR5 = WDR5 (Homo sapiens, UniProt P61964); assay: TR-FRET competition binding assay, displacement of 10mer-Thr-FAM MLL peptide probe from His-tagged WDR5; details: WDR5-His tag (residues 24-334) 2 nM; 10mer-Thr-FAM 150 nM; 60 min, room temperature; read-out: Ki for Inhibition of WDR5 by TR-FRET assay
# Procedure: Time Resolved-Fluorescence Energy Transfer Competition Assay […] Excess 10mer-Thr-FAM probe was utilized with His-tagged WDR5 in conjunction with a commercial anti-His antibody containing a Terbium label. The LanthaScreenTM Elite Tb-anti-HIS Antibody from ThermoFisher Scientific was used for this purpose. […] The 10mer-Thr-FAM probe when bound to WDR5 will undergo a FRET interaction with the Tb-anti-HIS and emit at 520 nm. […] WDR[…] 10[…] used at 150 nM. […] A source plate is prepared using an Echo Liquid Handler, which distributes the compounds to the assay plate (white, flat-bottom; OptiPlate) in a 10-point, 5-fold dilution schemes with a top concentration of 5 μM, in a final volume of 20 μL. […] The final DMSO concentration in each well of the assay plate is 1% or lower. The plate is covered, shielded from light, and incubated for 60 minutes at room temperature with rocking. 10mer-Thr-FAM and Anti-His terbium antibody fluorescence is then measured on a Biotek Cytation 3 at excitation wavelength of 340 nm, and emission wavelengths of 495 nm and 520 nm. […] TR-FRET signal is plotted and IC50 and Ki values are calculated according to the formula of Wang Z. FEBS Lett (1996) 3, 245. Ki=[I]50/([L]50/Kd+[P]0/Kd+1) where [I]50 is the concentration of the free inhibitor at 50% inhibition, [L]50 is the concentration of the free labeled ligand at 50% inhibition, [P]0 is the concentration of the free protein at 0% inhibition, Kd represents the dissociation constant of the FITC-MLL or 10mer-Thr-FAM probe for WDR5. Total fluorescence is also measured, to rule out compounds that are inherently fluorescent or able to act as quenchers in the assay. TR-FRET Binding Assay
# [1] = test system: MV4:11 human cancer cell lines; assay: Cellular viability / anti-proliferative assay, CellTiter-Glo, 5 day protocol; format: cell-based; details: Homo sapiens, MV4-11, 120 h, MV4:11 cells; 5 day incubation; CellTiter-Glo; mean of at least two replicates; read-out: GI50 on cellular proliferation of MV4:11 human cancer cell lines
# In short: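 MV-4-11 cells in IMDM with 10% FBS, 200 cells/well, exposed 5 days to 22 two-fold dilutions from 30 μM, final DMSO 0.3%. Viability read by CellTiter-Glo luminescence; GI50 from sigmoidal dose-response fit, mean of at least two replicates.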
SMILES,Ki (WDR5),GI50 [1]
"CCc1cc(C(=O)Nc2ccncc2)c2nccc(N3CCc4c(cc(Cn5ccnc5)cc4-c4cn(C)nc4C(F)(F)F)C3=O)c2c1 [Example 158, 4-(7-((1H-Imidazol-1-yl)methyl)-5-(1-methyl-3-(trifluoromethyl)-1H-pyrazol-4-yl)-1-oxo-3,4-dihydroisoquinolin-2(1H)-yl)-6-ethyl-N-(pyridin-4-yl)quinoline-8-carboxamide]",< 0.02 nM,31 nM
"Cc1ccc2cncc(N3CCc4c(cc(Cc5ccncc5)cc4-c4cn(C)nc4C(F)(F)F)C3=O)c2c1 [Example 59, 6′-Methyl-5-(1-methyl-3-(trifluoromethyl)-1H-pyrazol-4-yl)-7-(pyridin-4-ylmethyl)-3,4-dihydro-1H-[2,4′-biisoquinolin]-1-one]",1.4 nM,4380 nM
"COc1cc(C)c2nccc(N3CCc4c(cc(Cn5ccnc5C)cc4-c4cn(C)nc4C(F)(F)F)C3=O)c2c1 [Example 7, 2-(6-Methoxy-8-methylquinolin-4-yl)-7-((2-methyl-1H-imidazol-1-yl)methyl)-5-(1-methyl-3-(trifluoromethyl)-1H-pyrazol-4-yl)-3,4-dihydroisoquinolin-1(2H)-one]",0.026 nM,29 nM
"CCc1cc(COC2COC2)c2nccc(N3CCc4c(cc(Cn5ccnc5)cc4-c4cn(C)nc4C(F)(F)F)C3=O)c2c1 [Example 191, 7-((1H-Imidazol-1-yl)methyl)-2-(6-ethyl-8-((oxetan-3-yloxy)methyl)quinolin-4-yl)-5-(1-methyl-3-(trifluoromethyl)-1H-pyrazol-4-yl)-3,4-dihydroisoquinolin-1(2H)-one]",< 0.02 nM,< 20 nM
"COc1ccc(N2CCc3c(cc(Cn4ccnc4)cc3-c3cn(C)nc3C(F)(F)F)C2=O)c2cc(C)cnc12 [Example 23, 7-((1H-Imidazol-1-yl)methyl)-2-(8-methoxy-3-methylquinolin-5-yl)-5-(1-methyl-3-(trifluoromethyl)-1H-pyrazol-4-yl)-3,4-dihydroisoquinolin-1(2H)-one]",< 0.02 nM,210 nM
"COc1ccc2c(c1)[C@@H](N1CCc3c(cc(Cn4ccnc4C)cc3-c3cn(C)nc3C(F)(F)F)C1=O)CCO2 [Example 69, (S)-2-(6-Methoxychroman-4-yl)-7-((2-methyl-1H-imidazol-1-yl)methyl)-5-(1-methyl-3-(trifluoromethyl)-1H-pyrazol-4-yl)-3,4-dihydroisoquinolin-1(2H)-one]",< 0.02 nM,< 20 nM
"COc1ccc2ncc(Cl)c(N3CCc4c(cc(Cn5ccnc5C)cc4-c4cn(C)nc4C(F)(F)F)C3=O)c2c1 [Example 9, 2-(3-Chloro-6-methoxyquinolin-4-yl)-7-((2-methyl-1H-imidazol-1-yl)methyl)-5-(1-methyl-3-(trifluoromethyl)-1H-pyrazol-4-yl)-3,4-dihydroisoquinolin-1(2H)-one]",0.048 nM,43 nM
"CCn1cc(-c2cc(Cn3ccnc3C)cc3c2CCN(c2cc(C)nc4ccc(OC)cc24)C3=O)c(C(F)(F)F)n1 [Example 51, 5-(1-Ethyl-3-(trifluoromethyl)-1H-pyrazol-4-yl)-2-(6-methoxy-2-methylquinolin-4-yl)-7-((2-methyl-1H-imidazol-1-yl)methyl)-3,4-dihydroisoquinolin-1(2H)-one]",< 0.02 nM,< 20 nM
"CCc1cc(Br)c2nc(C)cc(N3CCc4c(cc(Cn5ccnc5)cc4-c4cn(C)nc4C(F)(F)F)C3=O)c2c1 [Example 109, 7-((1H-imidazol-1-yl)methyl)-2-(8-bromo-6-ethyl-2-methylquinolin-4-yl)-5-(1-methyl-3-(trifluoromethyl)-1H-pyrazol-4-yl)-3,4-dihydroisoquinolin-1(2H)-one]",< 0.02 nM,22 nM
"CCc1cc(COC2CNC2)c2nccc(N3CCc4c(cc(Cn5ccnc5)cc4-c4cn(C)nc4C(F)(F)F)C3=O)c2c1 [Example 179, 7-((1H-Imidazol-1-yl)methyl)-2-(8-((azetidin-3-yloxy)methyl)-6-ethylquinolin-4-yl)-5-(1-methyl-3-(trifluoromethyl)-1H-pyrazol-4-yl)-3,4-dihydroisoquinolin-1(2H)-one]",< 0.02 nM,33 nM
"COc1cc(C(=N)NO)c2nc(C)cc(N3CCc4c(cc(Cn5ccnc5)cc4-c4cn(C)nc4C(F)(F)F)C3=O)c2c1 [Example 184, 4-(7-((1H-Imidazol-1-yl)methyl)-5-(1-methyl-3-(trifluoromethyl)-1H-pyrazol-4-yl)-1-oxo-3,4-dihydroisoquinolin-2(1H)-yl)-N-hydroxy-6-methoxy-2-methylquinoline-8-carboximidamide]",< 0.02 nM,21 nM
"CCc1cc(C(=O)NCCNC(=O)c2ccncc2)c2nccc(N3CCc4c(cc(Cn5ccnc5)cc4-c4cn(C)nc4C(F)(F)F)C3=O)c2c1 [Example 213, 4-(7-((1H-imidazol-1-yl)methyl)-5-(1-methyl-3-(trifluoromethyl)-1H-pyrazol-4-yl)-1-oxo-3,4-dihydroisoquinolin-2(1H)-yl)-6-ethyl-N-(2-(isonicotinamido)ethyl)quinoline-8-carboxamide]",< 0.02 nM,< 20 nM
"CCc1cc(C(=O)NCC2CN(C(=O)c3cscn3)C2)c2nccc(N3CCc4c(cc(Cn5ccnc5)cc4-c4cn(C)nc4C(F)(F)F)C3=O)c2c1 [Example 220, 4-(7-((1H-Imidazol-1-yl)methyl)-5-(1-methyl-3-(trifluoromethyl)-1H-pyrazol-4-yl)-1-oxo-3,4-dihydroisoquinolin-2(1H)-yl)-6-ethyl-N-((1-(thiazole-4-carbonyl)azetidin-3-yl)methyl)quinoline-8-carboxamide]",< 0.02 nM,< 20 nM
"CNC(=O)c1cc(OC)cc2c(N3CCc4c(cc(Cn5ccnc5)cc4-c4cn(C)nc4C(F)(F)F)C3=O)ccnc12 [Example 42, 4-(7-((1H-Imidazol-1-yl)methyl)-5-(1-methyl-3-(trifluoromethyl)-1H-pyrazol-4-yl)-1-oxo-3,4-dihydroisoquinolin-2(1H)-yl)-6-methoxy-N-methylquinoline-8-carboxamide]",< 0.02 nM,20 nM
"Cc1cc(Cl)c2cncc(N3CCc4c(cc(Cn5ccnc5)cc4-c4cn(C)nc4C(F)(F)F)C3=O)c2c1 [Example 24, 7-((1H-Imidazol-1-yl)methyl)-8′-chloro-6′-methyl-5-(1-methyl-3-(trifluoromethyl)-1H-pyrazol-4-yl)-3,4-dihydro-1H-[2,4′-biisoquinolin]-1-one]",0.026 nM,92 nM
"Cc1cc(N2CCN(C)C(=O)C2)c2cncc(N3CCc4c(cc(Cn5ccnc5)cc4-c4cn(C)nc4C(F)(F)F)C3=O)c2c1 [Example 112, 7-((1H-Imidazol-1-yl)methyl)-6′-methyl-5-(1-methyl-3-(trifluoromethyl)-1H-pyrazol-4-yl)-8′-(4-methyl-3-oxopiperazin-1-yl)-3,4-dihydro-1H-[2,4′-biisoquinolin]-1-one]",0.037 nM,23 nM
"CCc1cc(N2CCN(C)CC2)c2nc(C)cc(N3CCc4c(cc(Cn5ccnc5)cc4-c4cn(C)nc4C(F)(F)F)C3=O)c2c1 [Example 110, 7-((1H-imidazol-1-yl)methyl)-2-(6-ethyl-2-methyl-8-(4-methylpiperazin-1-yl)quinolin-4-yl)-5-(1-methyl-3-(trifluoromethyl)-1H-pyrazol-4-yl)-3,4-dihydroisoquinolin-1(2H)-one]",0.021 nM,< 20 nM
"COc1cc2c(N3CCc4c(cc(Cn5ccnc5)cc4-c4cn(C)nc4C(F)(F)F)C3=O)cccc2nc1C [Example 114, 7-((1H-Imidazol-1-yl)methyl)-2-(3-methoxy-2-methylquinolin-5-yl)-5-(1-methyl-3-(trifluoromethyl)-1H-pyrazol-4-yl)-3,4-dihydroisoquinolin-1(2H)-one]",0.038 nM,43 nM
"Cc1nccn1Cc1cc2c(c(-c3cn(C)nc3C(F)(F)F)c1)CCN(C1COc3ccccc31)C2=O (stereo not shown) [Example 77, 2-(2,3-Dihydrobenzofuran-3-yl)-7-((2-methyl-1H-imidazol-1-yl)methyl)-5-(1-methyl-3-(trifluoromethyl)-1H-pyrazol-4-yl)-3,4-dihydroisoquinolin-1(2H)-one]",< 0.02 nM,583 nM
"COCCNC(=O)c1cc(OC)cc2c(N3CCc4c(cc(Cn5ccnc5)cc4-c4cn(C)nc4C(F)(F)F)C3=O)ccnc12 [Example 49, 4-(7-((1H-Imidazol-1-yl)methyl)-5-(1-methyl-3-(trifluoromethyl)-1H-pyrazol-4-yl)-1-oxo-3,4-dihydroisoquinolin-2(1H)-yl)-6-methoxy-N-(2-methoxyethyl)quinoline-8-carboxamide]",< 0.02 nM,34 nM

# Reference: US12692249B2, “WDR5 inhibitors and modulators” (Vanderbilt University, priority 2019, dated 2026)
